From patent US5084564A, “Production of oligosaccharide fractions having antithrombotic properties by controlled chemical depolymerization of heparin” (Bioiberica, S.A., priority 1988, dated 1992) come the findings set out here.

The conditions of this data set: rat, in vivo, sc.

Regarding heparin, the bioavailability is 48-60%.
